# From patent US11331369B2, “Endoparasitic depsipeptides” (Zoetis Services LLC, priority 2017, dated 2022)
# Tested on: microfilariae of Dirofilaria immitis
# Assay: Dirofilaria immitis, Microfilaria (DiMF) In vitro Assay
# Format: cell-based
# Details: 72 h, read-out: DiMF Minimum Effective Dose (MED), approximately 72 hours incubation, microfilariae assessed for survival or paralysis
row,Structure (SMILES),minimal effective concentration
1,"CSc1cnn(Cc2ccc(C[C@H]3OC(=O)[C@H](CC(C)C)N(C)C(=O)[C@@H](C)OC(=O)[C@H](CC(C)C)N(C)C(=O)[C@@H](Cc4ccc(Cn5cc(SC)cn5)cc4)OC(=O)[C@H](CC(C)C)N(C)C(=O)[C@@H](C)OC(=O)[C@H](CC(C)C)N(C)C3=O)cc2)c1 [Example 1b-20, (3S,6R,9S,12R,15S,18R,21S,24R)-3,9,15,21-tetraisobutyl-4,6,10,16,18,22-hexamethyl-12,24-bis[[4-[(4-methylsulfanylpyrazol-1-yl)methyl]phenyl]methyl]-1,7,13,19-tetraoxa-4,10,16,22-tetrazacyclotetracosane-2,5,8,11,14,17,20,23-octaone]",0.01 to 0.1 µM
2,"CC(C)C[C@H]1C(=O)O[C@H](Cc2cccc(Cn3cc([N+](=O)[O-])cn3)c2)C(=O)N(C)[C@@H](CC(C)C)C(=O)O[C@H](C)C(=O)N(C)[C@@H](CC(C)C)C(=O)O[C@H](Cc2ccccc2)C(=O)N(C)[C@@H](CC(C)C)C(=O)O[C@H](C)C(=O)N1C [Example 5-2, (3S,6R,9S,12R,15S,18R,21S,24R)-6-benzyl-3,9,15,21-tetraisobutyl-4,10,12,16,22,24-hexamethyl-18-(3-((4-nitro-1H-pyrazol-1-yl)methyl)benzyl)-1,7,13,19-tetraoxa-4,10,16,22-tetraazacyclotetracosan-2,5,8, 11,14,17,20,23-octaone]",0.001 to 0.01 µM
3,"CC(C)C[C@H]1C(=O)O[C@H](Cc2ccc(Cn3cc(CO)c(C(F)(F)F)n3)cc2)C(=O)N(C)[C@@H](CC(C)C)C(=O)O[C@H](C)C(=O)N(C)[C@@H](CC(C)C)C(=O)O[C@H](Cc2ccc(Cn3cc(CO)c(C(F)(F)F)n3)cc2)C(=O)N(C)[C@@H](CC(C)C)C(=O)O[C@H](C)C(=O)N1C [Example 1b-162, (3S,6R,9S,12R,15S,18R,21S,24R)-6,18-bis(4-((4-(hydroxymethyl)-3-(trifluoromethyl)-1H-pyrazol-1-yl)methyl)benzyl)-3,9,15,21-tetraisobutyl-4,10,12,16,22,24-hexamethyl-1,7,13,19-tetraoxa-4,10,16,22-tetraazacyclotetracosan-2,5,8,11,14,17,20,23-octaone]",0.01 to 0.1 µM
4,"CC(C)C[C@H]1C(=O)O[C@H](Cc2cccc(Cn3ccnc3)c2)C(=O)N(C)[C@@H](CC(C)C)C(=O)O[C@H](C)C(=O)N(C)[C@@H](CC(C)C)C(=O)O[C@H](Cc2ccc(Cn3ccnc3)cc2)C(=O)N(C)[C@@H](CC(C)C)C(=O)O[C@H](C)C(=O)N1C [Example 7-2, (3S,6R,9S,12R,15S,18R,21S,24R)-6-(3-((1H-imidazol-1-yl)methyl)benzyl)-18-(4-((1H-imidazol-1-yl)methyl)benzyl)-3,9,15,21-tetraisobutyl-4,10,12,16,22,24-hexamethyl-1,7,13,19-tetraoxa-4,10,16,22-tetraazacyclotetracosan-2,5,8,11,14,17,20,23-octaone]",0.01 to 0.1 µM
5,"CC(C)C[C@H]1C(=O)O[C@H](Cc2ccc(Cn3cc(-c4ccc(F)cc4)cn3)cc2)C(=O)N(C)[C@@H](CC(C)C)C(=O)O[C@H](C)C(=O)N(C)[C@@H](CC(C)C)C(=O)O[C@H](Cc2ccccc2)C(=O)N(C)[C@@H](CC(C)C)C(=O)O[C@H](C)C(=O)N1C [Example 2-5, (3S,6R,9S,12R,15S,18R,21S,24R)-6-benzyl-18-[[4-[[4-(4-fluorophenyl)pyrazol-1-yl]methyl]phenyl]methyl]-3,9,15,21-tetraisobutyl-4,10,12,16,22,24-hexamethyl-1,7,13,19-tetraoxa-4,10,16,22-tetrazacyclotetracosane-2,5,8,11,14,17,20,23-octaone]",0.01 to 0.1 µM
